The numbers were not newly measured in patent publication US9068996B2, “Analyte detection method” (SPHERE MEDICAL LIMITED, priority 2010, dated 2015), which cites them from elsewhere.

Molecules are shown by their SMILES. Like-named read-outs stand apart in the source and are kept apart here.

For this series the following is noted: for average blood propofol concentration required: patients.

For `CC(C)c1cccc(C(C)C)c1O` [propofol, 2,6-di-isopropylphenol], the “Blood propofol concentration at which 50% of patients (EC50) were awake” value (after surgery, awake) was 1.07 µg/mL. Further, the “Blood propofol concentration at which 50% of patients (EC50) were oriented” value (after surgery, oriented) is 0.95 µg/mL. For the same compound, the “average blood propofol concentration required” value is 4.05 ± 1.01 µg/mL (major surgery) and 2.97 ± 1.07 µg/mL (non-major surgery).
